{"source": "patent US20080213338A1", "about": "“IMPLANT STENT WITH A RETINOID FOR IMPROVED BIOCOMPATIBILITY” (priority 1997, published 2008)", "test_system": "pigmented rabbits", "test": "Retinal plug implantation in vitrectomized rabbit eyes, histopathology (PAS stain) at 28 days", "format": "in vivo", "conditions": "polylactic acid plug containing 10% by weight retinoid, inserted into vitreous through sclera; intravitreal injection of 500,000 human RPE cells; 28 days after insertion", "description": "Retinal plugs were manufactured from poly(D,L)lactic acid (PLA) with an intrinsic viscosity of 0.6 DL/G. The retinoid 6-[(4,4-dimethyl thiochroman-6-yl)ethynl]nicotinic acid (AGN190299) was mixed with polymer in a three-dimensional mixer. The mixture was then extruded at 85° C. into a homogeneous rod. The retinoid was incorporated into the polymeric plug at a concentration of 10%. […] A 0.5 mm hole was drilled into the distal end of the plug to allow for suture fixation to the sclera. Placebo plugs containing no retinoid were also manufactured to the same dimensions. The average weight of the plugs was 8 mg. All plugs were sterilized by gamma irradiation at l Mrad.\nThe rabbit eyes were vitrectomized and the retinal plugs with or without incorporated retinoid were inserted through a sclerotomy 3 mm posterior to the corneoscleral limbus. The plugs were then fixated with the suture used to close the sclerotomy. An intravitreal injection of 500,000 human RPE cells was given to simulate traction retinal detachment. The rabbits were sacrificed at 28 days and histopathology was done.\nThese observed results are shown in FIG. 7 for the placebo plug and in FIG. 8 for the plug 10 including the retinoid as hereinabove described.", "data": [{"compound": "CC1(C)CCSc2ccc(C#Cc3ccc(C(=O)O)cn3)cc21", "note": "[AGN190299, 6-[(4,4-dimethylthiochroman-6-yl)ethynyl]nicotinic acid]", "values": [{"measurement": "fibrous inflammation of the capsule surrounding the plug (histopathology, PAS stain)", "value": "very little fibrous inflammation"}]}]}
